In ChEMBL document CHEMBL4376803, “Recent Advances in the Exploration of Therapeutic Analogues of Gramicidin S, an Old but Still Potent Antimicrobial Peptide” (J Med Chem, 2019):
Values after ≈ are worked out from the molar mass of the structure shown. Square brackets hold non-standard residues; d marks the D form. Peptide text beside a SMILES is read from it. Orn = NCCC[C@H](N)C(=O)O

Key:
Format in all cases: functional
Escherichia coli [1] = assay: Antibacterial activity against Escherichia coli UB1005 after overnight incubation by microtiter dilution method
Pseudomonas aeruginosa [2] = assay: Antibacterial activity against Pseudomonas aeruginosa H187 after overnight incubation by microtiter dilution method
Enterococcus faecalis [3] = assay: Antibacterial activity against Enterococcus faecalis ATCC 29212 after overnight incubation by microtiter dilution method
Staphylococcus aureus [4] = assay: Antibacterial activity against Staphylococcus aureus K147 after overnight incubation by microtiter dilution method
Candida albicans = assay: Antibacterial activity against Candida albicans after overnight incubation by microtiter dilution method
Escherichia coli [5] = assay: Antibacterial activity against Escherichia coli ATCC 25922
Pseudomonas aeruginosa [6] = assay: Antibacterial activity against Pseudomonas aeruginosa ATCC 27853
Enterococcus faecalis [7] = assay: Antibacterial activity against Enterococcus faecalis ATCC 29212
Staphylococcus aureus [8] = assay: Antibacterial activity against Staphylococcus aureus ATCC 29213
Staphylococcus aureus [9] = assay: Antibacterial activity against methicillin-resistant Staphylococcus aureus ATCC 4330
Escherichia coli [10] = assay: Antibacterial activity against Escherichia coli NBRC 12734 after overnight incubation by microplate dilution method
Pseudomonas aeruginosa [11] = assay: Antibacterial activity against Pseudomonas aeruginosa NBRC 3080 after overnight incubation by microplate dilution method
Bacillus subtilis [12] = assay: Antibacterial activity against Bacillus subtilis NBRC 3513 after overnight incubation by microplate dilution method
Staphylococcus aureus [13] = assay: Antibacterial activity against Staphylococcus aureus NBRC 12732 after overnight incubation by microplate dilution method
Priestia megaterium [14] = assay: Antibacterial activity against Bacillus megaterium ATCC 19213 after overnight incubation by microplate dilution method
Escherichia coli [15] = assay: Antibacterial activity against Escherichia coli ATCC 25922 after 24 hrs by broth dilution method; details: ATCC 25922, 24 h
Pseudomonas aeruginosa [16] = assay: Antibacterial activity against Pseudomonas aeruginosa ATCC 19582 after 24 hrs by broth dilution method; details: ATCC 19582, 24 h
Enterococcus faecalis [17] = assay: Antibacterial activity against Enterococcus faecalis 1131 after 24 hrs by broth dilution method; details: Enterococcus faecalis, 1131, 24 h
Staphylococcus aureus [18] = assay: Antibacterial activity against Staphylococcus aureus 7323
Escherichia coli [19] = assay: Antibacterial activity against Escherichia coli K-12 strain W3110 incubated for 20 hrs by liquid microdilution method; details: K-12 substr. W3110, 20 h
Staphylococcus aureus [20] = assay: Antibacterial activity against Staphylococcus aureus 209P incubated for 20 hrs by liquid microdilution method
Pseudomonas aeruginosa [21] = assay: Antibacterial activity against Pseudomonas aeruginosa ATCC 27853 incubated for 24 hrs; details: ATCC 27853, 24 h
Escherichia coli [22] = assay: Antibacterial activity against Escherichia coli ATCC 25922 after 24 hrs; details: ATCC 25922, 24 h
Enterococcus faecalis [23] = assay: Antibacterial activity against Enterococcus faecalis ATCC 29212 after 24 hrs; details: ATCC 29212, 24 h
Staphylococcus aureus [24] = assay: Antibacterial activity against Staphylococcus aureus ATCC 29213 after 24 hrs; details: ATCC 29213, 24 h
[25] = test system: Staphylococcus epidermidis; assay: Antibacterial activity against Staphylococcus epidermidis ATCC 12228 incubated for 24 hrs; details: ATCC 12228, 24 h
Bacillus cereus = assay: Antibacterial activity against Bacillus cereus ATCC 11778 incubated for 24 hrs; details: ATCC 11778, 24 h
Staphylococcus aureus [26] = assay: Antibacterial activity against Staphylococcus aureus ATCC 25923 after 22 hrs by double dilution method; details: ATCC 25923, 22 h
Escherichia coli [27] = assay: Antibacterial activity against Escherichia coli ATCC 25922 after 22 hrs by double dilution method; details: ATCC 25922, 22 h
Pseudomonas aeruginosa [28] = assay: Antibacterial activity against Pseudomonas aeruginosa ATCC 27853 after 22 hrs by double dilution method; details: ATCC 27853, 22 h
Enterococcus faecalis [29] = assay: Antibacterial activity against Enterococcus faecalis ATCC 29212 after 22 hrs by double dilution method; details: ATCC 29212, 22 h
[30] = test system: Staphylococcus epidermidis; assay: Antibacterial activity against Staphylococcus epidermidis ATCC 12228 after 22 hrs by double dilution method; details: ATCC 12228, 22 h
Escherichia coli [31] = assay: Antibacterial activity against Escherichia coli ATCC 8739 incubated for 48 hrs; details: ATCC 8739, 48 h
Pseudomonas aeruginosa [32] = assay: Antibacterial activity against Pseudomonas aeruginosa ATCC 9027 incubated for 48 hrs; details: ATCC 9027, 48 h
Staphylococcus aureus [33] = assay: Antibacterial activity against Staphylococcus aureus ATCC 6538 incubated for 48 hrs; details: ATCC 6538, 48 h
Bacillus subtilis [34] = assay: Antibacterial activity against Bacillus subtilis CIP 52.65 incubated for 48 hrs; details: CIP 52.65, 48 h
Escherichia coli [35] = assay: Antibacterial activity against Escherichia coli NBRC 12734
Pseudomonas aeruginosa [36] = assay: Antibacterial activity against Pseudomonas aeruginosa NBRC 3080
Bacillus subtilis [37] = assay: Antibacterial activity against Bacillus subtilis NBRC 3513
Staphylococcus aureus [38] = assay: Antibacterial activity against Staphylococcus aureus NBRC 12732
Priestia megaterium [39] = assay: Antibacterial activity against Bacillus megaterium ATCC 19213
Staphylococcus aureus [40] = assay: Antibacterial activity against methicillin-resistant Staphylococcus aureus NT 1110301981H-T034-PVL+ incubated for 24 hrs
Escherichia coli [41] = assay: Antibacterial activity against Escherichia coli K-12 ATCC 29181 after overnight incubation by broth microdilution method
Klebsiella pneumoniae = assay: Antibacterial activity against Klebsiella pneumonia K6 ATCC 700603 after overnight incubation by broth microdilution method; details: 700603 K6
Salmonella = assay: Antibacterial activity against Salmonella after overnight incubation by broth microdilution method
Staphylococcus aureus [42] = assay: Antibacterial activity against multidrug-resistant Staphylococcus aureus ATCC BAA-44 after overnight incubation by broth microdilution method
Staphylococcus aureus [43] = assay: Antibacterial activity against vancomycin-resistant Staphylococcus aureus Mu50/ATCC 700699 after overnight incubation by broth microdilution method
[44] = test system: Staphylococcus epidermidis; assay: Antibacterial activity against Staphylococcus epidermidis ATCC 27626 after overnight incubation by broth microdilution method
Staphylococcus aureus [45] = assay: Antibacterial activity against Staphylococcus aureus
[46] = test system: Staphylococcus epidermidis; assay: Antibacterial activity against Staphylococcus epidermidis
Staphylococcus xylosus = assay: Antibacterial activity against Staphylococcus xylosus
Staphylococcus aureus [47] = assay: Antibacterial activity against Staphylococcus aureus ATCC 49975 after 16 to 20 hrs by broth microdilution method

Compound `CC(C)C[C@@H]1NC(=O)[C@H](CCCN)NC(=O)[C@H](C(C)C)NC(=O)[C@@H]2CCCN2C(=O)[C@@H](Cc2ccccc2)NC(=O)[C@H](CC(C)C)NC(=O)[C@H](CCCN)NC(=O)[C@H](C(C)C)NC(=O)[C@@H]2CCCN2C(=O)[C@@H](Cc2ccccc2)NC1=O` (cyclo(V[Orn]L[dF]PV[Orn]L[dF]P)) has an MIC (Escherichia coli [1]) of 6.2 µg/mL (≈ 5.43 µM), an MIC (Pseudomonas aeruginosa [2]) of 20 µg/mL (≈ 17.5 µM) and an MIC (Enterococcus faecalis [3]) of 2.8 µg/mL (≈ 2.45 µM). The MIC (Staphylococcus aureus [4]) was 1.5 µg/mL (≈ 1.31 µM), the MIC (Candida albicans) was 3.1 µg/mL (≈ 2.72 µM) and the MIC (Escherichia coli [5]) was 32 µg/mL (≈ 28 µM). For the same compound, the MIC (Pseudomonas aeruginosa [6]) was 64 µg/mL (≈ 56.1 µM), the MIC (Enterococcus faecalis [7]) was 8 µg/mL (≈ 7.01 µM) and the MIC (Staphylococcus aureus [8]) was 4 µg/mL (≈ 3.5 µM). For the same compound, the MIC (Staphylococcus aureus [9]) was 8 µg/mL (≈ 7.01 µM), the MIC (Escherichia coli [10]) was 25 µg/mL (≈ 21.9 µM) and the MIC (Pseudomonas aeruginosa [11]) was 25 µg/mL (≈ 21.9 µM). For the same compound, the MIC (Bacillus subtilis [12]) was 3.13 µg/mL (≈ 2.74 µM), the MIC (Staphylococcus aureus [13]) was 3.13 µg/mL (≈ 2.74 µM) and the MIC (Priestia megaterium [14]) was 3.13 µg/mL (≈ 2.74 µM). For the same compound, the MIC (Escherichia coli [15]) was 32 µg/mL (≈ 28 µM), the MIC (Pseudomonas aeruginosa [16]) was 8 µg/mL (≈ 7.01 µM) and the MIC (Enterococcus faecalis [17]) was 8 µg/mL (≈ 7.01 µM). For the same compound, the MIC (Staphylococcus aureus [18]) was 8 µg/mL (≈ 7.01 µM), the MIC (Escherichia coli [19]) was 32 µg/mL (≈ 28 µM) and the MIC (Staphylococcus aureus [20]) was 4 µg/mL (≈ 3.5 µM). It also gave an MIC (Pseudomonas aeruginosa [21]) of 64 µg/mL (≈ 56.1 µM), an MIC (Escherichia coli [22]) of 32 µg/mL (≈ 28 µM) and an MIC (Enterococcus faecalis [23]) of 8 µg/mL (≈ 7.01 µM). It also gave an MIC (Staphylococcus aureus [24]) of 8 µg/mL (≈ 7.01 µM), an MIC [25] of 8 µg/mL (≈ 7.01 µM) and an MIC (Bacillus cereus) of 8 µg/mL (≈ 7.01 µM). It also gave an MIC (Staphylococcus aureus [26]) of 4 µg/mL (≈ 3.5 µM), an MIC (Escherichia coli [27]) of 32 µg/mL (≈ 28 µM) and an MIC (Pseudomonas aeruginosa [28]) of 64 µg/mL (≈ 56.1 µM). For the same compound, the MIC (Enterococcus faecalis [29]) was 8 µg/mL (≈ 7.01 µM), the MIC [30] was 2 µg/mL (≈ 1.75 µM) and the MIC (Escherichia coli [31]) was 12.5 µg/mL (≈ 11 µM). It also gave an MIC (Pseudomonas aeruginosa [32]) of 50 µg/mL (≈ 43.8 µM), an MIC (Staphylococcus aureus [33]) of 3.12 µg/mL (≈ 2.74 µM) and an MIC (Bacillus subtilis [34]) of 1.56 µg/mL (≈ 1.37 µM). It also gave an MIC (Escherichia coli [35]) of 25 µg/mL (≈ 21.9 µM), an MIC (Pseudomonas aeruginosa [36]) of 25 µg/mL (≈ 21.9 µM) and an MIC (Bacillus subtilis [37]) of 3.13 µg/mL (≈ 2.74 µM). The MIC (Staphylococcus aureus [38]) was 3.13 µg/mL (≈ 2.74 µM), the MIC (Priestia megaterium [39]) was 3.13 µg/mL (≈ 2.74 µM) and the MIC (Staphylococcus aureus [40]) was 8 µg/mL (≈ 7.01 µM). The MIC (Escherichia coli [41]) was 28 µg/mL (≈ 24.5 µM), the MIC (Klebsiella pneumoniae) was 3.6 µg/mL (≈ 3.15 µM) and the MIC (Salmonella) was 28 µg/mL (≈ 24.5 µM). For the same compound, the MIC (Staphylococcus aureus [42]) was 1.8 µg/mL (≈ 1.58 µM), the MIC (Staphylococcus aureus [43]) was 3.6 µg/mL (≈ 3.15 µM) and the MIC [44] was 1.8 µg/mL (≈ 1.58 µM). For the same compound, the MIC (Staphylococcus aureus [45]) was 2 µg/mL (≈ 1.75 µM), the MIC [46] was 2 µg/mL (≈ 1.75 µM) and the MIC (Staphylococcus xylosus) was 1 µg/mL (≈ 0.876 µM). The MIC (Staphylococcus aureus [47]) was 2 µg/mL (≈ 1.75 µM).
